Laboratory results: PMC11740379, “Novel Enyne-Modified 1,4-Thiazepines as Epidermal Growth Factor Receptor Inhibitors: Anticancer and Computational Studies” (ACS Omega, 2024)
Like-named read-outs stand apart in the source and are kept apart here.

Assays:
[1] = test system: PC-3 cells; test: Annexin V-FITC/PI apoptosis detection by flow cytometry; format: cell-based, human; settings: PC-3, IC50 concentration, 72 h
Description: (§1) Annexin V, a protein with a high affinity for phosphatidylserine (PS), is pivotal in detecting apoptosis. Normally, PS is located in the inner leaflet of the plasma membrane, but during apoptosis, it moves to the outer leaflet, making it a key marker for apoptotic cells.[16] Annexin V binds specifically to PS on the surface of these cells. A secondary dye like propidium iodide (PI) is used to distinguish apoptotic cells from viable ones with intact membranes. We can identify and quantify viable cells (annexin V–, PI–) and apoptotic cells (annexin V+, PI+) by analyzing fluorescence patterns. Here, we employed the FITC Annexin V Apoptosis Detection Kit I from BD Pharmingen. Cells were seeded at a density of 10^6 cells per well in a 6-well plate and exposed to IC50 concentration of TZEP7 for 72 h. Following treatment, cells were rinsed with cold PBS, resuspended in 1 mL of 1× Binding Buffer, and stained with 5 μL of Annexin V FITC and 5 μL of PI. After vortexing, the samples were incubated at room temperature (25 °C) for 15 min in the dark. Postincubation, 400 μL of 1× Binding Buffer was added to each sample, and apoptosis was measured using a BD Accuri C6 Flow Cytometer. Cisplatin was used as an apoptosis-inducing reference drug.

[2] = test system: A549 cells; test: as above; format: cell-based, human; settings: A549, IC50 concentration, 72 h
Description: as §1

[3] = test system: MCF-7 cells; test: as above; format: cell-based, human; settings: MCF-7, IC50 concentration, 72 h
Description: as §1

[4] = test system: Bcl-2 mRNA; test: qRT-PCR of apoptosis-related mRNA; format: cell-based, human; settings: 72 h, vs untreated control
Protocol: (§2) To measure the mRNA expression levels of apoptosis-related genes B-cell lymphoma 2 (Bcl-2), Bcl-2-associated X protein (Bax), Cyclin-dependent kinase 2 (CDK2), and Cyclin E, total mRNA was extracted from cells treated with compound 6f using Trizol reagent (Sigma). cDNA was synthesized from the total mRNA using the Qiagen cDNA synthesis kit according to the manufacturer’s instructions. The following primers, each at a concentration of 350 nM, were employed: Bcl-2; forward ([…]), reverse ([…]); Bax; forward ([…]), reverse ([…]); Caspase-8; forward ([…]), reverse ([…]); Caspase-9; forward (TGTCTACGGCACAGATGGA), reverse (GGACTCGTCTTCAGGGGA); EGFRWT: forward ([…]), reverse (CCTGTGCCAGGGACCTTAC−); EGFRT790 M forward ([…]), reverse ([…]); human GAPDH; forward ([…]), reverse (AGATGGTGATGGGCTTCCC). The PCR mix was prepared with 1× buffer containing 0.2 mM dNTPs, 1.6 mM MgCl2, […] of each primer set, cDNA, and 0.25 U Taq polymerase. The PCR conditions were as follows: an initial denaturation at 95 °C for 60 s, followed by 50 cycles of 95 °C for 15 s, 60 °C for 15 s, and 72 °C for 60 s. The cycle threshold (CT) for each replicate was normalized to the average CT of the endogenous control (GAPDH). The relative quantification of gene expression was calculated using the comparative CT method.[17]

[5] = test system: Caspase-9 mRNA; test: qRT-PCR of apoptosis-related mRNA; format: cell-based, human; settings: 72 h, vs untreated control
Protocol: as §2

[6] = XTT cytotoxicity assay, non-tumorigenic cells; format: cell-based; settings: human, HEK-293 cells (nontumorigenic); HEK293, 0.1 μM; read-out: cell viability
[7] = test system: A549 cells; test: XTT cytotoxicity assay, lung cancer cells; format: cell-based, human; settings: for IC50: A549
Protocol: The cells were cultured in RPMI medium (Sigma) supplemented with 10% heat-inactivated fetal bovine serum, 1% penicillin, and 1% L-glutamine, and incubated in a humidified CO2 atmosphere at 37 °C.
To evaluate the cytotoxic effects of TZEPs, which were dissolved in dimethyl sulfoxide (DMSO), the XTT assay (2,3-bis(2-methoxy-4-nitro-5-sulfophenyl)-2H-tetrazolium-5-carboxanilide) was employed. […] Following the incubation, 100 μL of XTT was added to each well, and the plates were incubated for an additional 4 h at 37 °C. The resulting color change was measured by recording the absorbance at 570 nm using a microplate reader (Tecan).
Conversely, an SI less than 1 means the drug is more toxic to normal cells than to target cells, which is undesirable in therapeutic contexts.

[8] = test system: HEK-293 cells; test: XTT cytotoxicity assay, non-tumorigenic cells; format: cell-based, human; settings: Homo sapiens, HEK293; XTT assay; exposure time of the IC50 not stated (24, 48, 72 h tested)
Protocol: (§3) Human cell lines for breast cancer (MCF-7), lung cancer (A549), prostate cancer (PC-3), and nontumorigenic HEK-293 were sourced from the Health Protection Agency (U.K.) and the Interlab Cell Line Collection (Italy). The cells were cultured in RPMI medium (Sigma) supplemented with 10% heat-inactivated fetal bovine serum, 1% penicillin, and 1% L-glutamine, and incubated in a humidified CO2 atmosphere at 37 °C.
(§4) To evaluate the cytotoxic effects of TZEPs, which were dissolved in dimethyl sulfoxide (DMSO), the XTT assay (2,3-bis(2-methoxy-4-nitro-5-sulfophenyl)-2H-tetrazolium-5-carboxanilide) was employed. Cells were plated in 96-well plates at a density of 10^4 cells per well and exposed to varying concentrations of TZEPs (ranging from 1 to 250 μM) for 24, 48, and 72 h. Following the incubation, 100 μL of XTT was added to each well, and the plates were incubated for an additional 4 h at 37 °C. The resulting color change was measured by recording the absorbance at 570 nm using a microplate reader (Tecan).
(§5) The IC50 values, which indicate the concentration of the compound required to inhibit 50% of cancer cell proliferation, were determined using Biosoft CalcuSyn 2.1 software. […] Conversely, an SI less than 1 means the drug is more toxic to normal cells than to target cells, which is undesirable in therapeutic contexts. In the literature, a selectivity index of 2 or higher is generally considered significant, implying that the compound selectively targets diseased cells with relatively low toxicity to healthy cells.[15]

[9] = XTT cytotoxicity assay, non-tumorigenic cells; format: cell-based, human; settings: human, HEK-293 cells (nontumorigenic), read-out: cell viability
Protocol: as §3, §4, §5

SMILES: Cc1cc(C2=NCC(=CC#Cc3ccccc3)SC(c3ccc(Cl)cc3)=C2)ccc1F [TZEP7]
- cells in early apoptosis [1]: 13.7%
- cells in late apoptosis [1]: 65.6%
- cells in early apoptosis [2]: 15.1%
- cells in late apoptosis [2]: 68.7%
- cells in early apoptosis [3]: 22.4%
- cells in late apoptosis [3]: 68.5%
- reduction of Bcl-2 mRNA level ([4]; A549, IC50 concentration): 3.3 fold
- reduction of Bcl-2 mRNA level ([4]; MCF-7, IC50 concentration): 3.4 fold
- reduction of Bcl-2 mRNA level ([4]; PC-3, IC50 concentration): 4.3 fold
- induction of Caspase-9 mRNA level ([5]; A549, IC50 concentration): 3.7 fold
- induction of Caspase-9 mRNA level ([5]; MCF-7, IC50 concentration): 4.4 fold
- induction of Caspase-9 mRNA level ([5]; PC-3, IC50 concentration): 3.6 fold
- viability at 0.1 µM [6]: 87.3%
- IC50 ([7]; Homo sapiens, XTT assay, exposure time of the IC50 not stated (24, 48, 72 h tested), read-out: IC50, lung cancer (A549)): 12.7 ± 2 µM
- IC50 ([7]; Homo sapiens, dose–response curve of Figure 2, read-out: IC50, A549, dose–response curve): 12.1 µM
- viability at 0.1 µM ([7]; Homo sapiens, A549, 0.1 μM, read-out: cell viability): 68%
- viability at 1 µM ([7]; Homo sapiens, A549, 1 μM, read-out: cell viability): 53%
- viability at 10 µM ([7]; Homo sapiens, A549, 10 μM, read-out: cell viability): 40%
- viability at 50 µM ([7]; Homo sapiens, A549, 50 μM, read-out: cell viability): 30%
- viability at 100 µM ([7]; Homo sapiens, A549, 100 μM, read-out: cell viability): 10%
- Selectivity index (SI), lung cancer (A549) ([7]; versus normal cells HEK-293): 4.27
- IC50 [8]: 54.3 ± 0.9 µM
- viability at 1 µM ([9]; HEK293, 1 μM): 57.1%
- viability at 10 µM ([9]; HEK293, 10 μM): 44.1%
- viability at 50 µM ([9]; HEK293, 50 μM): 31.3%
- viability at 100 µM ([9]; HEK293, 100 μM): 24.2%
